Data on 35 compounds can be found in patent publication US20260176270A1 (Exelixis, Inc., priority 2022, published 2026).

Each structure is given as a SMILES string. Like-named read-outs stand apart in the source and are kept apart here.

Test [1] deals with phosphorylation of CDK1 at Thr14 in HCC1806 cells. The experiment in a line: Cell lysate AlphaLISA assay measuring inhibition of phosphorylation of CDK1 Thr14. It is filed as cell-based. The conditions noted are these: read-out: Cellular IC50. The procedure:
(§1) Biochemical IC50 values were determined via ADP-Glo™ assay. Cellular IC50 values were determined via AlphaLISA assay.
Cell lysate AlphaLISA® assay measuring inhibition of phosphorylation of CDK1 Thr14. Inhibition of phosphorylation of CDK1 at Thr14 was determined using AlphaLISA® SureFire® Ultra™ Kit from Perkin Elmer (ALSU-PCDK1-A10K). HCC1806 cells were seeded at 2K cells per well (50 μl/well) in 384-well plates (Corning 3570) and stored overnight at 37° C. and 5% CO2. The following day, the compounds dissolved in DMSO were introduced to the cells and incubated for 4 hours at 37° C. and 5% CO2. The cells were then washed with PBS using Blue®Washer and 10 μl of lysis buffer containing protease inhibitor was added. The plate was placed on an orbital shaker (at 4° C.) for 30 minutes and stored overnight at −80° C. for complete lysing. The next day, the plates were thawed at room temperature for at least 30 min. Reagents were prepared in a dimmed light setting (<100 lumens). The assay was run by first adding 5 μl of the acceptor mix (reaction buffer 1: reaction buffer 2: activation buffer: acceptor beads 47:47:4:2), covering the plate with foil, shaking for 2 minutes and incubating at RT for 60 minutes. The donor mix (dilution buffer: donor beads 47:3) was then added at 5 μl per well, placed on the shaker for 2 minutes and incubated at RT for 60 minutes before reading the plates on a PHERAstar® plate reader. The results were normalized to DMSO (0% Inhibition) and 3 μM of reference compound.
For orientation: Bead proximity is the source of the signal in Alpha formats.

Another test concerns the target T1, PKMYT1 (Homo sapiens, UniProt Q99640).
T1 construct: PKMYT1 (93 kD, full length, N-terminal GST tag from Signal Chem); GST (N); purchased Signal Chem
T1 sequence (Q99640 1-499): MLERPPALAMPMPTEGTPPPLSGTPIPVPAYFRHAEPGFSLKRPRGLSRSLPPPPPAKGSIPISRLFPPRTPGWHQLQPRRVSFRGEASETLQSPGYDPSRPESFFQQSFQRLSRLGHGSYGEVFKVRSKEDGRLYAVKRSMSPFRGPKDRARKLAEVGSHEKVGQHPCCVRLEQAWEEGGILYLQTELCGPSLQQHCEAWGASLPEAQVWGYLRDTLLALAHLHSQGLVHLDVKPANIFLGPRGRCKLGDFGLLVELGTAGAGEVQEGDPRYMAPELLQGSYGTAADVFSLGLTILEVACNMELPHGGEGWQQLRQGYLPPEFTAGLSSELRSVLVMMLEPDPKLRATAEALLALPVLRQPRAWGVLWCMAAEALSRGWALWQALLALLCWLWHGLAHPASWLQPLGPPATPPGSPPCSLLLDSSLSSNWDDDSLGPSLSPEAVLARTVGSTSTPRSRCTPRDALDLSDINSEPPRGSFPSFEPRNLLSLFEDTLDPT
The experiment in a line: ADP-Glo PKMYT1 ATP-depletion assay. The conditions noted are these: 50 nM PKMYT1, 13.3 nM CDK1, read-out: Biochemical IC50. As for the experimental part: as §1
ADP-Glo™ PKMYT1 ATP-depletion assay. The activity of PKMYT1 is measured using a luciferase-luciferin based ATP detection reaction to quantify ATP depletion resulting from kinase-catalyzed phosphoryl transfer to CDK1 or autophosphorylation of PKMYT1. The ADP generated as a byproduct of the reaction is converted to ATP and used to drive a luciferase reaction. Test compounds were dissolved in DMSO and dispensed into Corning 3824 384-well plates prior to the experiment such that the final DMSO concentration was <1%. To the compounds was added 3 μL of PKMYT1 (93 kD, full length, N-terminal GST tag from Signal Chem). The reaction was started by the addition of 2 μL of CDK1 (58 kDa, full length, N-terminal GST tag from Signal Chem) and ATP in assay buffer (50 mM Hepes, 40 mM NaCl, 10 mM MgCl2, 1 mM DTT, 0.1 mg/mL BSA, 2.5 mM MnCl2). Final assay concentrations were 50 nM PKMYT1, 13.3 nM CDK1, and 88 µM ATP. Plates were centrifuged for 1 minute at 1000 RPM and incubated at RT for 120 minutes. After the incubation period, ADP-Glo™ reagent was added and the plates were incubated for another 40 minutes before finally adding the kinase detection reagent. 30 minutes after the addition, plates were placed on a PHERAstar® plate reader and read using the Luminescence Protocol, integration time at 0.5 seconds.
On the technique in general: ADP-Glo first removes unused ATP, then detects ADP through luciferase.

As for `Cc1ccc(O)c(C)c1-c1c(N)c(C(N)=O)nc2c(F)cccc12` (single isomer, unassigned) [Compound 39, (P)-3-amino-8-fluoro-4-(3-hydroxy-2,6-dimethylphenyl)quinoline-2-carboxamide], the IC50 (in test [1] (4 hours); at PKMYT1) was at least 5000 nM in each case.
For the compound `NC(=O)c1nc2cccnc2c(-c2ccnc3[nH]ncc23)c1N` [Compound 191], the concentration for half-maximal inhibition (IC50) (usually the concentration that inhibits the measured activity by half) in test [1] (Homo sapiens, HCC1806, 4 h) was at least 5000 nM; at PKMYT1, 1000 to 5000 nM.
Consider `Cc1cnc2[nH]ncc2c1-c1c(N)c(C(N)=O)cc2nccnc12` [Compound 234], for which the concentration for half-maximal inhibition (IC50) is at least 5000 nM in test [1] (Homo sapiens, HCC1806, 4 h) and at least 5000 nM at PKMYT1.
`CCNc1cnc2c(-c3c(C)ccc(O)c3C)c(N)c(C(N)=O)cc2n1` [Compound 326]: the IC50 is 1000 to 5000 nM in test [1] (Homo sapiens, HCC1806, 4 h) and 50 to 500 nM on PKMYT1.
Taken in the same sequence, the figures for `COc1ccc2nc(C(N)=O)c(N)c(-c3c(C)ccc(O)c3C)c2c1` [Compound 48, 3-Amino-4-(3-hydroxy-2,6-dimethylphenyl)-6-methoxyquinoline-2-carboxamide] were 50 to 500 nM and 50 to 500 nM.
Taken in the same sequence, the figures for `CC1=C(c2c(N)c(C(N)=O)nc3cccnc23)CCCC1=O` [Compound 303] were at least 5000 nM and at least 5000 nM.
For `Cc1c(O)cccc1-c1c(N)c(C(N)=O)cc2nccc(C#N)c12` [Compound 241], the 50% inhibitory concentration (IC50) is below 50 nM in test [1] (Homo sapiens, HCC1806, 4 h) and below 50 nM at PKMYT1.
`Cc1c(O)cccc1-c1c(N)c(C(N)=O)cc2ncc(C(F)(F)F)nc12` (single isomer, unassigned) [Compound 124, (P)-7-Amino-8-(3-hydroxy-2-methylphenyl)-2-(trifluoromethyl)quinoxaline-6-carboxamide]: the half-maximal inhibitory concentration (IC50) was 50 to 500 nM in test [1] (4 hours) and below 50 nM on PKMYT1.
Taken in the same sequence, the figures for `Cc1c(O)cccc1-c1c(N)c(C(N)=O)cc2ncc(C(F)(F)F)nc12` [Compound 139] were 50 to 500 nM and below 50 nM.
Taken in the same sequence, the figures for `NC(=O)c1cc2nccnc2c(-c2cccc(O)c2Cl)c1N` (single isomer, unassigned) [Compound 105, (P)-7-Amino-8-(2-chloro-3-hydroxyphenyl)quinoxaline-6-carboxamide] were 50 to 500 nM and below 50 nM.
Taken in the same sequence, the figures for `Cc1c(O)cccc1-c1c(N)c(C(N)=O)cc2nc(C(F)(F)F)c(O)nc12` (atropisomer, axis not shown) [Compound 135] were 1000 to 5000 nM and 50 to 500 nM.
With `Cc1c(O)cccc1-c1ccnc2nc(C(N)=O)c(N)cc12` [Compound 233], the IC50 in test [1] (Homo sapiens, HCC1806, 4 h) is at least 5000 nM; at PKMYT1 it was 1000 to 5000 nM.
Taken in the same sequence, the figures for `NC(=O)c1cc2nccnc2c(-c2cc(O)ccc2F)c1N` [Compound 114, 7-Amino-8-(2-fluoro-5-hydroxyphenyl)quinoxaline-6-carboxamide] were 1000 to 5000 nM and 50 to 500 nM.
With `Cc1c(O)cccc1-c1c(N)c(C(N)=O)cc2ccn(C)c(=O)c12` (atropisomer, axis not shown) [Compound 336], the IC50 in test [1] (4 hours) was 50 to 500 nM; at PKMYT1, below 50 nM.
With `Cc1cnncc1-c1c(N)c(C(N)=O)nc2cccnc12` [Compound 257], the IC50 in test [1] (Homo sapiens, HCC1806, 4 h) was at least 5000 nM; at PKMYT1, at least 5000 nM.
On to `Cc1cc(O)c(C)c(-c2c(N)c(C(N)=O)nc3cccnc23)c1` (atropisomer, axis not shown) [Compound 286], for which the results for the IC50 (in test [1] (4 hours); at PKMYT1) were at least 5000 nM and 500 to 1000 nM, respectively.
Taken in the same sequence, the figures for `Cc1ccc(-c2c(N)c(C(N)=O)nc3cccnc23)c(C)c1O` [Compound 292] were 500 to 1000 nM and 50 to 500 nM.
With `COc1cnc(F)c(-c2c(N)c(C(N)=O)nc3cccnc23)c1` [Compound 229], the IC50 was at least 5000 nM in test [1] (Homo sapiens, HCC1806, 4 h) and 1000 to 5000 nM at PKMYT1.
Turning to `Cc1nc2cc(C(N)=O)c(N)c(-c3cccc(O)c3C)c2nc1C` (single isomer, unassigned) [Compound 92, (P)-7-Amino-8-(3-hydroxy-2-methylphenyl)-2,3-dimethylquinoxaline-6-carboxamide], the IC50 in test [1] (4 hours) is 50 to 500 nM; at PKMYT1, below 50 nM.
Taken in the same sequence, the figures for `Cc1n[nH]c2cccc(-c3c(N)c(C(N)=O)cc4nccnc34)c12` (single isomer, unassigned) [Compound 119, (P)-7-amino-8-(3-methyl-1H-indazol-4-yl)quinoxaline-6-carboxamide] were at least 5000 nM and at least 5000 nM.
Taken in the same sequence, the figures for `Cc1c(O)cccc1-c1c(N)c(C(N)=O)nc2cc(C(F)(F)F)cnc12` (atropisomer, axis not shown) [Compound 167] were at least 5000 nM and 1000 to 5000 nM.
Taken in the same sequence, the figures for `Cc1c(O)cccc1-c1c(N)c(C(N)=O)nc2cc(C(F)(F)F)ccc12` [Compound 59, 3-Amino-4-(3-hydroxy-2-methylphenyl)-7-(trifluoromethyl) quinoline-2-carboxamide] were 1000 to 5000 nM and at least 5000 nM.
With `Cn1ccc(-c2cc(C(N)=O)cc3nccnc23)cc1=O` [Compound 132], the IC50 is at least 5000 nM in test [1] (Homo sapiens, HCC1806, 4 h) and at least 5000 nM on PKMYT1.
On to `NC(=O)c1cc2nccnc2c(-c2cc(O)ccc2Cl)c1N` [Compound 121, 7-Amino-8-(2-chloro-5-hydroxyphenyl)quinoxaline-6-carboxamide], for which the IC50 was 1000 to 5000 nM in test [1] (Homo sapiens, HCC1806, 4 h) and 50 to 500 nM on PKMYT1.
Taken in the same sequence, the figures for `Cc1c(-c2c(N)c(C(N)=O)cc3nccnc23)ccc2oc(N)nc12` [Compound 197] were at least 5000 nM and at least 5000 nM.
`Cc1cc(O)c(C)c(-c2c(N)c(C(N)=O)nc3cccnc23)c1` (atropisomer, axis not shown) [Compound 285]: the IC50 is at least 5000 nM in test [1] (Homo sapiens, HCC1806, 4 h) and at least 5000 nM at PKMYT1.
For the compound `NC(=O)c1cc2nccnc2c(-c2cc(O)ccc2Cl)c1N` (atropisomer, axis not shown) [Compound 152], the IC50 on PKMYT1 was at least 5000 nM.
Consider `Cc1ccc2nc(C(N)=O)c(N)c(-c3cccc(O)c3C)c2c1` (atropisomer, axis not shown) [Compound 149], for which, at PKMYT1, the IC50 fell in the range of 50 to 500 nM.
Turning to `Cc1ccc(O)c(C)c1-c1c(N)c(C(N)=O)cc2nc(C)c(C)nc12` (atropisomer, axis not shown) [Compound 140], on PKMYT1, the IC50 is at least 5000 nM.
For the compound `Cc1c(O)cccc1-c1c(N)c(C(N)=O)nc2nccnc12` (atropisomer, axis not shown) [Compound 194], on PKMYT1, the IC50 was below 50 nM.
`Cc1ccc(O)c(C)c1-c1c(N)c(C(N)=O)cc2nc(C)c(C)nc12` (atropisomer, axis not shown) [Compound 141]: the IC50 at PKMYT1 was below 50 nM.
Take `Cc1c(O)cccc1-c1c(N)c(C(N)=O)nc2nccnc12` (atropisomer, axis not shown) [Compound 195]: on PKMYT1, the IC50 lay in the range of 500 to 1000 nM.
The same measure, in the same setting: with `Cc1ccc(O)c(C)c1-c1cc(C(N)=O)cc2nccnc12` (atropisomer, axis not shown) [Compound 165] the figure was at least 5000 nM.
Still for that read-out and setting: with `Cc1ccc2nc(C(N)=O)c(N)c(-c3cccc(O)c3C)c2c1` (atropisomer, axis not shown) [Compound 150] the figure was at least 5000 nM.
Same read-out and setting: with `NC(=O)c1cc2nccnc2c(-c2cc(O)ccc2Cl)c1N` (atropisomer, axis not shown) [Compound 151] the figure was 50 to 500 nM.
